Legend:
Format in all cases: cell-based
[1] = target: T1, ecdysone receptor (EcR) with USP (Drosophila melanogaster, UniProt P34021); test: Transient transfection reporter assay in CV-1 cells, ecdysone receptor with USP; conditions: 1 μM muristerone A vs ethanol, unmodified ecdysone receptor, FIG. 1A
T1 construct: expressed in transfected cells; host or cells: CV-1 cells
T1 sequence (P34021 1-878): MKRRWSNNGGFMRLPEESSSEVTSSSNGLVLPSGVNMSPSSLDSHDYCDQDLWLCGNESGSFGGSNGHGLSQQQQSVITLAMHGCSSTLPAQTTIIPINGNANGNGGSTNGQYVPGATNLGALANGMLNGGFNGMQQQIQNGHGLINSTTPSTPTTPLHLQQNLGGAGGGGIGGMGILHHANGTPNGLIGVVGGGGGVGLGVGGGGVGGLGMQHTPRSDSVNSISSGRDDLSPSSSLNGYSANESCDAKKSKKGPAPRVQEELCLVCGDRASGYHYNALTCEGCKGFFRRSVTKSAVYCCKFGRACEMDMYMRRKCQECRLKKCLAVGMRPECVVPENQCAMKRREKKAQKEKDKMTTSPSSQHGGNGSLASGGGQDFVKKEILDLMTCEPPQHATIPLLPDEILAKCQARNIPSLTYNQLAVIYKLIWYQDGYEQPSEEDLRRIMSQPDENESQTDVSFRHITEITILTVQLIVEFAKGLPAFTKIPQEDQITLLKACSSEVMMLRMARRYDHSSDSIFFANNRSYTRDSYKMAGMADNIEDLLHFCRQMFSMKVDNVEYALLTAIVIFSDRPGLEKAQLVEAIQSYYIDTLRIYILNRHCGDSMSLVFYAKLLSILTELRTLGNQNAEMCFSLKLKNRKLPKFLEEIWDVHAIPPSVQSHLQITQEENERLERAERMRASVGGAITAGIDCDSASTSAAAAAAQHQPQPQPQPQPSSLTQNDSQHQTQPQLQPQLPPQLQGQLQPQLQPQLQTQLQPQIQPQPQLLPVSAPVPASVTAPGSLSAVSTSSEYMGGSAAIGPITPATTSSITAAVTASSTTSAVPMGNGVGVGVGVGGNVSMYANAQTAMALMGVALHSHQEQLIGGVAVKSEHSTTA
T1 sequence (P20153 1-508 partner): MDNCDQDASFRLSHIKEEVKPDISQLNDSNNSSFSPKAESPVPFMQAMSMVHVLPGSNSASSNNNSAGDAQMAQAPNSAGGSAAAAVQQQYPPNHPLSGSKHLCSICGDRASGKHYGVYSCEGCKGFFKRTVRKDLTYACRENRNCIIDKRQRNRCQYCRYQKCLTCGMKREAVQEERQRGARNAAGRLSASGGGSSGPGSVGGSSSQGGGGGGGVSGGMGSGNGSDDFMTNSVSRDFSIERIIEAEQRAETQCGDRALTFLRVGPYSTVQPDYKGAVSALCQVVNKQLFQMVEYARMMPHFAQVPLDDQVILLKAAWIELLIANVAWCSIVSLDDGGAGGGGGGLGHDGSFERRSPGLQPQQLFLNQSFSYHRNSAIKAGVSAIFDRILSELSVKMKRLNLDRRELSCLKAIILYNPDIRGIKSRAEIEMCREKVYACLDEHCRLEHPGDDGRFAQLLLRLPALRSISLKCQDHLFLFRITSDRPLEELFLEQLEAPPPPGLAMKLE
Description: (§1) CV-1 cells were maintained in DMEM supplemented with 10% Fetal Bovine Serum. Transient transfections were performed using DOTAP transfection reagent (Boehringer-Mannheim). Transfections using β-galactosidase as the reporter were assayed either by Galactolight luminescent assay (Tropix, Bedford, Mass.) or by standard liquid ONPG assay (Sigma, St. Louis, Mo). The values were normalized by co-transfection of CMX-luciferase. Transfections using luciferase as the reporter were assayed by standard techniques using luciferin and ATP. These values were normalized by co-transfection of CMX-β-galactosidase. Hormone treated cells were treated with ethanol, 50 μM Juvenile Hormone III (Sigma), 1 μM muristerone A (Zambon, Bresso, IT), or 1 μM dexamethasone (Sigma) unless otherwise noted.
(§2) To maximize the sensitivity of the invention ecdysone inducible system, modifications of the ecdysone receptor were made. The N-terminal transactivation domain of the ecdysone receptor was replaced by the corresponding domain of the glucocorticoid receptor (GR), resulting in the modified ecdysone receptor GEcR (See FIG. 1D). CV-1 cells were transfected with the plasmid CMX-GEcR encoding the modified ecdysone receptor as discussed above. […]

[2] = system: GEcR (modified ecdysone receptor); test: Transient transfection reporter assay in CV-1 cells, modified ecdysone receptor GEcR; conditions: 1 μM muristerone A vs ethanol; CV-1 cells transfected with CMX-GEcR; FIG. 1A
Description: as §1, §2

[3] = target: T2, ecdysone receptor heterodimer with retinoid X receptor (RXR) (Drosophila melanogaster, UniProt P34021); test: Transient transfection reporter assay in CV-1 cells, USP replaced by RXR; conditions: 1 μM muristerone A, FIG. 1A
T2 construct: expressed in transfected cells; host or cells: CV-1 cells
T2 sequence (P34021 1-878): T1 sequence (P34021 1-878)
T2 sequence (P19793 1-462 partner): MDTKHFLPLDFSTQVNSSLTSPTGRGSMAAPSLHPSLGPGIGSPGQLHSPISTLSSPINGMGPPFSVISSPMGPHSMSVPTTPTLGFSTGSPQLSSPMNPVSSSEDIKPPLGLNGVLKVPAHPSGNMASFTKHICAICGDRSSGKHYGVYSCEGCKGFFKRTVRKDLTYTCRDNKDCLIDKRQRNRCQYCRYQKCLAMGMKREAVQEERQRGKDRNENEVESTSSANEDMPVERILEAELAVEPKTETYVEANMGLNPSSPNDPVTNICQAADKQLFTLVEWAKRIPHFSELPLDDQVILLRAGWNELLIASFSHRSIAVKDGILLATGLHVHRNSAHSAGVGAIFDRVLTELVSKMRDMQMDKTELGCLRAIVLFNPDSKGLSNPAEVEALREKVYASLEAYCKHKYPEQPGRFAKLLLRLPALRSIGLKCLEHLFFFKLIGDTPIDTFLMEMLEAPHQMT
Description: as §1, §2

[4] = system: RXR and VpEcR heterodimer; test: Transient transfection reporter assay in CV-1 cells, RXR and VpEcR; conditions: 1 μM muristerone A, FIG. 1A
Description: as §1

VgEcR/RXR heterodimer = test: Assay for inducer effectiveness on the ecdysone-inducible expression system (E/GRE4-ΔMTV-Luc reporter, CV-1 cells); conditions: for ability to activate the expression system in the further presence of an RXR agonist: diacylhydrazine plus LG1000268 vs alone, FIG. 4
Description: CV-1 cells were maintained in DMEM supplemented with 10% fetal bovine serum. Transfections were performed using the Dotap transfection reagent (Boehringer Mannheim). All candidate inducers were dissolved in either ethanol or DMSO. Muristerone A (MurA) was used as a positive control for activation. All transfections were performed in triplicate.
The E/GRE4-ΔMTV-Luc plasmid is routinely used as a reporter. […] A CMX-β-gal reporter plasmid was included in the transfection as a control for transfection efficiency. Approximately 10 hours after transfection, the media was removed and replaced with fresh media containing varying concentrations of the putative inducers. Cells were exposed to candidate activators for 20–48 hours, then assayed for luciferase and β-galactosidase activity employing standard techniques. Luciferase values were normalized using β-galactosidase activity levels.

| SMILES | muristerone responsiveness (fold induction of reporter) [1] [fold] | muristerone responsiveness (fold induction of reporter) [2] [fold] | fold induction of reporter [3] [fold] | fold induction of reporter [4] [fold] | activation of the ecdysone-inducible system, combination with RXR ligand (VgEcR/RXR heterodimer; MurA concentration varied, LG1000268 constant 100 nM, FIG. 3) | activation of the ecdysone-inducible system, ligand alone (VgEcR/RXR heterodimer; ligand alone over several concentrations, luciferase normalized to β-galactosidase, FIG. 3) | ability to activate the expression system in the further presence of an RXR agonist (VgEcR/RXR heterodimer) |
| --- | --- | --- | --- | --- | --- | --- | --- |
| CC(C)CC[C@@H](O)[C@](C)(O)[C@H]1CC[C@@]2(O)C3=CC(=O)[C@]4(O)C[C@@H](O)[C@@H](O)C[C@]4(C)[C@H]3[C@H](O)C[C@]12C [muristerone A] | 3 | 11 | 34 | 212 | dramatically enhances the activation | effective inducer | – |
| Cc1cc(C)cc(C(=O)N(NC(=O)c2ccc3c(c2C)OCCO3)C(C)(C)C)c1 [N′-(3,5-dimethylbenzoyl)-N-(2-methyl-3,4-(ethylenedioxy)-benzoyl)-N′-(tert-butyl) hydrazine] | – | – | – | – | – | – | enhanced ability |
| CCc1ccc(C(=O)NN(C(=O)c2cc(C)cc(C)c2)C(C)(C)C)cc1 [N′-(3,5-dimethylbenzoyl)-N-(4-ethylbenzoyl)-N′-(tert-butyl) hydrazine] | – | – | – | – | – | – | enhanced ability |
